Data on one compound can be found in US8785380B2 (priority 2011, dated 2014).

Data set [1] in a line: In vitro release of curcumin at pH 6.8 and pH 1.2, 37 °C. The format is physicochemical. The note with it: for Cumulative percent of release of curcumin: 37 °C, after 24 hour. As for the experimental part: Each data point is an average of 3 measurements (n=3) performed under identical conditions. […] Studies were performed in triplicate and mean cumulative percentage of released curcumin was calculated and plotted against time. […] This could be attributed to the very slow initial swelling of polysaccharide chains in water and its further dissolution to allow the leaching of entrapped curcumin into the solution in the dissolution flask.

The conditions of data set [2]: male, Wistar albino, rat, in vivo, po, 250 mg/kg. As for the experimental part:
Concentration was determined by HPLC/PDA detection.
[…] blood was collected after each time point, ca. 0, 0.5, 1, 3, 5, 10 and 24 hours respectively into heparinized tubes and centrifuged at 6000×g for 15 minutes. Plasma was decanted and stored at −80° C. until analysis. […] Briefly, 1 mL of plasma was extracted with 3×10 mL of ethyl acetate and is dried over anhydrous sodium sulphate and evaporated to dryness. The residue was then made up to 10 mL with methanol and 20 μL was injected to Shimadzu model LC-20 AT HPLC fitted with a PDA detector model M20A using a reverse phase C18 column (Phenomenex 250×4.6 mm, 5μ) and methanol mobile phase monitored at 420 nm.
Curcuminoid retention time was confirmed by repeated 10 analyses at 50 mg level on same column under identical conditions. […] Analysis was performed by incorporating a Waters Alliance LC fitted with Waters 3100 ESI mass detector.

For data set [3] the following is noted: human, in vivo, po. The protocol: The enhancement of bioavailability was also tested on human volunteers of age group between 25 to 50, who were healthy and not involved in any medication or health supplementation. The volunteers were not allowed to take turmeric-containing food for two days prior to the test.
6 mL blood of each volunteer was withdrawn at 0, 0.5, 1, 3, 5, 8 and 24 hours respectively and plasma samples were deep-frozen at −80° C. till analysis.

Molecules are shown by their SMILES.

For `COc1cc(/C=C/C(=O)CC(=O)/C=C/c2ccc(O)c(OC)c2)ccc1O` [unformulated curcumin, curcumin], the curcumin dissolved result in data set [1] (after 24 hours) is on record as “around 0.4%”. In addition, the entries for the “Cumulative percent of release of curcumin” value in data set [1] (pH 1.2 0.1M HCl) and in data set [1] (pH 6.8 phosphate buffer) were 0.06% and 0.08%, respectively. In data set [2], the “Tmax (time taken to reach maximum concentration in plasma)” value worked out at 3 h. Besides, the “time of maximum absorption of curcuminoids in the plasma” value in data set [3] was “around 30 min”.
